The values that follow are results of earlier work, collected in patent US20080206336A1, “Novel Composition Comprising Rosiglitazone and Another Antidiabetic Agent” (SB PHARMCO PURERTO RICO INC. The Prentice Hall Corp. System …, priority 2003, published 2008).

The conditions of this data set: acidic conditions of the stomach (around pH 2) versus near neutral conditions of the lower intestine (around pH 7).

Regarding `CN(CCOc1ccc(CC2SC(=O)NC2=O)cc1)c1ccccn1` (stereo not shown) [Compound A, 5-[4-[2-(N-methyl-N-(2 pyridyl)amino)ethoxy]benzyl]thiazolidine-2,4-dione], the pH dependent solubility result is “marked pH dependent solubility”.
